Data published in ChEMBL document CHEMBL1201862, “PubChem BioAssay data set” (2004).
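Values below derive from 48-hour exposures of cells grown in 96-well plates, with endpoints linearly interpolated between the two concentrations bracketing the appropriate inhibition level. GI50: concentration for 50% inhibition of growth.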 Calls of active or inactive are those of the source. Cut-off read from the data, not from the text of the source: active = GI50 up to about 1.1 µM and inactive = higher.

Assays:
Test in all cases: inhibition of tumour cell growth, NCI panel, 48 h
PC-3 = tested on: PC-3
786-0 = tested on: 786-0
KM12 = tested on: KM12
T47D = tested on: T47D
EKVX = tested on: EKVX
U-251 = tested on: U-251
SK-MEL-2 = tested on: SK-MEL-2
RPMI-8226 = tested on: RPMI-8226
IGROV-1 = tested on: IGROV-1
LOX IMVI = tested on: LOX IMVI
SNB-19 = tested on: SNB-19
CAKI-1 = tested on: CAKI-1
Malme-3M = tested on: Malme-3M
UO-31 = tested on: UO-31
SK-MEL-5 = tested on: SK-MEL-5
SF-268 = tested on: SF-268
HCT-15 = tested on: HCT-15
DU-145 = tested on: DU-145
SK-MEL-28 = tested on: SK-MEL-28
MCF7 = tested on: MCF7

| Structure (SMILES) | GI50 (PC-3) | GI50 (786-0) | GI50 (KM12) | GI50 (T47D) | GI50 (EKVX) | GI50 (U-251) | GI50 (SK-MEL-2) | GI50 (RPMI-8226) | GI50 (IGROV-1) | GI50 (LOX IMVI) | GI50 (SNB-19) | GI50 (CAKI-1) | GI50 (Malme-3M) | GI50 (UO-31) | GI50 (SK-MEL-5) | GI50 (SF-268) | GI50 (HCT-15) [µM] | GI50 (DU-145) | GI50 (SK-MEL-28) | GI50 (MCF7) |
| --- | --- | --- | --- | --- | --- | --- | --- | --- | --- | --- | --- | --- | --- | --- | --- | --- | --- | --- | --- | --- |
| Cn1c(N=[N+]=[N-])cc(=O)n(C)c1=O | > 100 µM (inactive) | > 100 µM (inactive) | > 100 µM (inactive) | > 100 µM (inactive) | > 100 µM (inactive) | > 100 µM (inactive) | > 100 µM (inactive) | > 100 µM (inactive) | > 100 µM (inactive) | > 100 µM (inactive) | > 100 µM (inactive) | > 100 µM (inactive) | > 100 µM (inactive) | > 100 µM (inactive) | > 100 µM (inactive) | > 100 µM (inactive) | > 100 |  |  |  |
| NC(N)=NCc1ccc2c(c1)OCO2 | > 100 µM (inactive) | 50.1 µM (inactive) | 50 µM (inactive) | > 100 µM (inactive) | > 100 µM (inactive) | > 100 µM (inactive) | > 100 µM (inactive) | 74 µM (inactive) | > 100 µM (inactive) | > 100 µM (inactive) | > 100 µM (inactive) | 44.9 µM (inactive) | 31.1 µM (inactive) | > 100 µM (inactive) | 24 µM (inactive) | > 100 µM (inactive) | > 100 | > 100 µM (inactive) | 67.3 µM (inactive) |  |
| COc1ccc(NCn2nc(CCCCCCCCc3nn(CNc4ccc(OC)cc4)c(=S)o3)oc2=S)cc1 | > 100 µM (inactive) | > 100 µM (inactive) | > 100 µM (inactive) |  | > 100 µM (inactive) | > 100 µM (inactive) | > 100 µM (inactive) | > 100 µM (inactive) |  |  | > 100 µM (inactive) | > 100 µM (inactive) | > 100 µM (inactive) | > 100 µM (inactive) | > 100 µM (inactive) | > 100 µM (inactive) | > 100 | > 100 µM (inactive) | > 100 µM (inactive) | > 100 µM (inactive) |
| O=C(NC1=NC2C=CC([N+](=O)[O-])=CC2S1)C(=O)Nn1c(S)nc2ccccc2c1=O (configuration not stated) | 40.6 µM (inactive) | > 100 µM (inactive) | > 100 µM (inactive) | 80.5 µM (inactive) | 33.7 µM (inactive) | 66.7 µM (inactive) | > 100 µM (inactive) | 50.6 µM (inactive) | 21 µM (inactive) | 67.3 µM (inactive) | 24.3 µM (inactive) | 40.4 µM (inactive) | 80 µM (inactive) | 27.7 µM (inactive) | 88.1 µM (inactive) | 99.3 µM (inactive) | 21.2 |  | > 100 µM (inactive) | 97.7 µM (inactive) |
| CC(C)[C@H](C)/C=C/[C@@H](C)C1CC[C@H]2[C@@]34C=C[C@]5(C[C@@H](O)CC[C@]5(C)[C@H]3CC[C@]12C)OO4 (some centres not stated) |  | 20.4 µM (inactive) | 31 µM (inactive) | 20.8 µM (inactive) | 39.3 µM (inactive) | 24.3 µM (inactive) | 26.7 µM (inactive) |  | 29 µM (inactive) | 17.7 µM (inactive) | 27.9 µM (inactive) | 22.5 µM (inactive) |  | 37.3 µM (inactive) | 23.6 µM (inactive) | 29.7 µM (inactive) | 32.8 | 23.1 µM (inactive) | 34 µM (inactive) | 31.9 µM (inactive) |
| Cc1nnc([C@@]2(C)CC[C@H]3[C@@H](CC=C4C[C@@H](O)CC[C@@]43C)[C@@H]2CC#N)o1 | > 100 µM (inactive) | > 100 µM (inactive) | > 100 µM (inactive) |  | > 100 µM (inactive) | > 100 µM (inactive) | > 100 µM (inactive) | 97.3 µM (inactive) |  | > 100 µM (inactive) | > 100 µM (inactive) | > 100 µM (inactive) | > 100 µM (inactive) | > 100 µM (inactive) | > 100 µM (inactive) | > 100 µM (inactive) | > 100 |  |  | > 100 µM (inactive) |
| COc1ccc(N[S+]([O-])c2c(C)cc(C)cc2C)cc1 (configuration not stated) |  | 89.5 µM (inactive) | 22.5 µM (inactive) | 34 µM (inactive) | 43.8 µM (inactive) | 50 µM (inactive) | > 100 µM (inactive) | 45.3 µM (inactive) | 22.5 µM (inactive) | 57 µM (inactive) | > 100 µM (inactive) |  | 20.3 µM (inactive) | 18.2 µM (inactive) | 23.8 µM (inactive) | 21.6 µM (inactive) | 18.2 | 93.3 µM (inactive) | > 100 µM (inactive) | 56 µM (inactive) |
| CCCCCC[C@H]1CC(=O)C2CCCC[C@@]23CC[C@H](CCl)N13.CCCCCC[C@H]1CC(=O)C2CCCC[C@@]23C[C@H](Cl)CN13 (some centres not stated) | 23.3 µM (inactive) | > 100 µM (inactive) | 49.8 µM (inactive) |  | 49.9 µM (inactive) | 29.6 µM (inactive) | > 100 µM (inactive) | 20.7 µM (inactive) | > 100 µM (inactive) |  | 37.9 µM (inactive) | 58.9 µM (inactive) | 55.3 µM (inactive) | 24.3 µM (inactive) | 17.2 µM (inactive) | 65.2 µM (inactive) | 60.3 | 61 µM (inactive) | 38.1 µM (inactive) | 40.1 µM (inactive) |
| O=c1cc(NNc2cccc(F)c2)[nH]c(=S)[nH]1 | > 100 µM (inactive) | 44.3 µM (inactive) | 96.8 µM (inactive) |  | > 100 µM (inactive) | 54.6 µM (inactive) |  | 42.4 µM (inactive) | > 100 µM (inactive) | 49.3 µM (inactive) | > 100 µM (inactive) |  | > 100 µM (inactive) | > 100 µM (inactive) | > 100 µM (inactive) | 1.97 µM (inactive) | 54.1 | > 100 µM (inactive) | > 100 µM (inactive) | 61.5 µM (inactive) |
| COc1ccc(/C(C)=N/NC(=O)c2ccncc2)cc1OC |  | > 10 µM (inactive) | > 10 µM (inactive) | > 10 µM (inactive) |  | > 10 µM (inactive) |  | > 10 µM (inactive) | > 10 µM (inactive) | > 10 µM (inactive) |  | > 10 µM (inactive) | > 10 µM (inactive) | 9.08 µM (inactive) | > 10 µM (inactive) | > 10 µM (inactive) | > 10 | > 10 µM (inactive) |  | > 10 µM (inactive) |
| CC1=NNC(=O)C1C(CC(=O)c1c[nH]c2ccccc12)C(=O)O (configuration not stated) | > 100 µM (inactive) | > 100 µM (inactive) | 30.1 µM (inactive) | 76 µM (inactive) | > 100 µM (inactive) | > 100 µM (inactive) | > 100 µM (inactive) | 35.1 µM (inactive) | 15 µM (inactive) | 97.3 µM (inactive) | > 100 µM (inactive) | > 100 µM (inactive) | > 100 µM (inactive) | 64.3 µM (inactive) | > 100 µM (inactive) | > 100 µM (inactive) | 92.9 | > 100 µM (inactive) | > 100 µM (inactive) |  |
| c1ccc2c(c1)SCCCS2 | > 100 µM (inactive) | > 100 µM (inactive) | > 100 µM (inactive) | > 100 µM (inactive) | > 100 µM (inactive) | > 100 µM (inactive) |  |  | > 100 µM (inactive) | > 100 µM (inactive) | > 100 µM (inactive) |  |  | > 100 µM (inactive) | > 100 µM (inactive) | > 100 µM (inactive) | > 100 | > 100 µM (inactive) | > 100 µM (inactive) | > 100 µM (inactive) |
| Cn1c2ccccc2n2c(=O)c(-c3ccc(Cl)cc3)nnc12 |  | > 100 µM (inactive) | > 100 µM (inactive) | > 100 µM (inactive) | > 100 µM (inactive) | > 100 µM (inactive) | 83.4 µM (inactive) |  | > 100 µM (inactive) | > 100 µM (inactive) | > 100 µM (inactive) | > 100 µM (inactive) | > 100 µM (inactive) | > 100 µM (inactive) | > 100 µM (inactive) | > 100 µM (inactive) | > 100 | > 100 µM (inactive) | > 100 µM (inactive) | > 100 µM (inactive) |
| N#Cc1c(-c2ccccc2)[nH]c2ccccc2c1=O | > 100 µM (inactive) | > 100 µM (inactive) | 47.9 µM (inactive) |  | > 100 µM (inactive) |  | 39.6 µM (inactive) |  | 23.9 µM (inactive) | > 100 µM (inactive) | 22.8 µM (inactive) | > 100 µM (inactive) | 41.3 µM (inactive) | > 10 µM (inactive) | 66.7 µM (inactive) | 35 µM (inactive) | 62.8 | > 100 µM (inactive) | > 100 µM (inactive) | 67 µM (inactive) |
| COC(=O)/C=C1/OC(c2ccccc2)=C(C)C1=O |  | 10.2 µM (inactive) | 14.1 µM (inactive) | 20.1 µM (inactive) | 17.9 µM (inactive) | 14.1 µM (inactive) |  | 2.19 µM (inactive) | 14.1 µM (inactive) | 1.28 µM (inactive) | 16.4 µM (inactive) | 4.05 µM (inactive) | 13.3 µM (inactive) | 13.8 µM (inactive) | 13.6 µM (inactive) | 17.9 µM (inactive) | 4.79 | 19.3 µM (inactive) | 16.8 µM (inactive) | 3.81 µM (inactive) |
| COC(=O)C(=O)C(C(=O)C=C(C)C)C(=O)C(=O)Nc1ccc(Cl)cc1C (configuration not stated) |  | > 100 µM (inactive) | > 100 µM (inactive) |  | > 100 µM (inactive) | > 100 µM (inactive) | > 100 µM (inactive) | 70 µM (inactive) | > 100 µM (inactive) | > 100 µM (inactive) | > 100 µM (inactive) | > 100 µM (inactive) | > 100 µM (inactive) | > 100 µM (inactive) | > 100 µM (inactive) | > 100 µM (inactive) | > 100 |  | > 100 µM (inactive) |  |
